Holding throughout (test): pNP release at […] nm
Type in all cases: biochemical
Conditions in all cases: 20 mM citrate phosphate pH 5.6, 60 °C

Experiment [1] deals with T1, RmBgl3B (Rhodothermus marinus, UniProt D0MD38).
T1 construct: gene Rmar_2069; recombinant in E. coli BL21 C43 (pET-21b(+)), signal peptide removed, C-terminal His-tag; locus tag is that of the type strain DSM 4252T homolog, gene cloned from DSM 4253
T1 sequence (D0MD38 21-839): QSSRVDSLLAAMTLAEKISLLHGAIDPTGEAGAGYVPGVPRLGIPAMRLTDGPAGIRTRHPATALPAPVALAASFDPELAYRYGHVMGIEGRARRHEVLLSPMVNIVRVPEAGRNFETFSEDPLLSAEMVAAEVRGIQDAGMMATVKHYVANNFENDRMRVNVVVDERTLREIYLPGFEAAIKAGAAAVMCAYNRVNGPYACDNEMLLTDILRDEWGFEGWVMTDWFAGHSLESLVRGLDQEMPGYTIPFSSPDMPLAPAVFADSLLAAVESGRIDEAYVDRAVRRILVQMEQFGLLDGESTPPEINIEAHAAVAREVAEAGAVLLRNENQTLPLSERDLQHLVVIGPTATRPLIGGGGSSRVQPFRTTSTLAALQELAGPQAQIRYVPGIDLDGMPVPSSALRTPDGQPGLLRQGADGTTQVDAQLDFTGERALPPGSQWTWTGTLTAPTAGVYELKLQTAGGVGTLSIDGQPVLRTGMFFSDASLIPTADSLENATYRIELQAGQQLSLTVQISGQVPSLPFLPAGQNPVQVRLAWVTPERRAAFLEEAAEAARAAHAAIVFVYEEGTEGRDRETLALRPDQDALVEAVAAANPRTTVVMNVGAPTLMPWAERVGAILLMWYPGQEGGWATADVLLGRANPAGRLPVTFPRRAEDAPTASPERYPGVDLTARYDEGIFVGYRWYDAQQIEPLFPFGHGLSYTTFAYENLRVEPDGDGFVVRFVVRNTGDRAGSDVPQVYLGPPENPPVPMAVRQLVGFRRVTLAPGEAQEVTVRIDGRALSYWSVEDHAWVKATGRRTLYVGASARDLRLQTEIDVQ

In experiment [2] the target is T2, RmXyl3B (Rhodothermus marinus, UniProt D0MHL5).
T2 construct: gene Rmar_1081; locus tag is that of the type strain DSM 4252T homolog, gene cloned from DSM 4253

Experiment [3] concerns the target T3, RmXyl3A (Rhodothermus marinus, UniProt D0MHL4).
T3 construct: gene Rmar_1080; locus tag is that of the type strain DSM 4252T homolog, gene cloned from DSM 4253
T3 sequence (D0MHL4 19-792): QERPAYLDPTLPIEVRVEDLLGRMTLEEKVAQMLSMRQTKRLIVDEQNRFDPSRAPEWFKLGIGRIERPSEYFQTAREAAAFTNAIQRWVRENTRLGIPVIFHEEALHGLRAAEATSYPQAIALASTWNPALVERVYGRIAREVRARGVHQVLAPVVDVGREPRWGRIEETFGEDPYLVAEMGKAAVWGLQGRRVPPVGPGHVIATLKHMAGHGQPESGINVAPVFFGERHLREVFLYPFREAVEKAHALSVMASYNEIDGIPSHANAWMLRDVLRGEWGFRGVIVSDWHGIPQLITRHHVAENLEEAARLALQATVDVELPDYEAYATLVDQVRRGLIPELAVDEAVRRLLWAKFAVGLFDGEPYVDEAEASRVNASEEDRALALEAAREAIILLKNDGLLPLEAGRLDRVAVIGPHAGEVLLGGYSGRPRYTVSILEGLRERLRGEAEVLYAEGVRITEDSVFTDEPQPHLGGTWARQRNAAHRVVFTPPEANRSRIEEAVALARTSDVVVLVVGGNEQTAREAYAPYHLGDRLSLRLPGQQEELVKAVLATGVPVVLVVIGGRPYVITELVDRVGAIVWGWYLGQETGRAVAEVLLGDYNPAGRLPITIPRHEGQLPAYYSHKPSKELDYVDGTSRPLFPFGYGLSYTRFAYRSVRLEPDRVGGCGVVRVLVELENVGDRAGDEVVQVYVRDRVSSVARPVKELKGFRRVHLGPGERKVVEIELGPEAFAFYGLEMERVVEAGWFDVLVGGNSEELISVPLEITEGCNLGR

These results are taken from PMC6987092, “Characterization and diversity of the complete set of GH family 3 enzymes from Rhodothermus marinus DSM 4253” (Scientific Reports, 2020).

T2 sequence (D0MHL5 entry or part of it): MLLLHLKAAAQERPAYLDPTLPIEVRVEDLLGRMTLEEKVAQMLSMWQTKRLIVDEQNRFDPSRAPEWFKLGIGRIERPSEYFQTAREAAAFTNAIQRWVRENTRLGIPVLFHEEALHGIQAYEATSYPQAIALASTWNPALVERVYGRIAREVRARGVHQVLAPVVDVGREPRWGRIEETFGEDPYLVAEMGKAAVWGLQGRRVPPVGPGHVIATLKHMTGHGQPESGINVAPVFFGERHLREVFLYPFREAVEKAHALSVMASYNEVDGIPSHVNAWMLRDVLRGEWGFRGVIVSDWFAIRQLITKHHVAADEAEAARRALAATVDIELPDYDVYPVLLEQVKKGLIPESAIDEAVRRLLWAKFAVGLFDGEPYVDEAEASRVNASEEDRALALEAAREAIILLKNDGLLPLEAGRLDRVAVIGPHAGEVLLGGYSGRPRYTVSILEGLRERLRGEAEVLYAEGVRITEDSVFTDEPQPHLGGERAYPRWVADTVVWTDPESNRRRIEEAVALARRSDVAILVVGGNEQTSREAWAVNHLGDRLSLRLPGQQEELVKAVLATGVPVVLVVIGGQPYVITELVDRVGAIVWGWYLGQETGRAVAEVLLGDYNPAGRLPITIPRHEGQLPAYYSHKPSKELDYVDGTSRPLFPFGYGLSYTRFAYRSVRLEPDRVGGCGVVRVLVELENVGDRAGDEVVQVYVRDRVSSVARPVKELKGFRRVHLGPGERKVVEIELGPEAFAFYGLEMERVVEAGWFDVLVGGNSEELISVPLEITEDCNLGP

As to pNP-α-L-Ara, the figures for the Km in experiment [1], in experiment [2] and in experiment [3] were 1900 ± 100 µM, 2000 ± 200 µM and 8800 ± 1000 µM, respectively.
